We go through two molecules from publication PMC6278385, “Preclinical Pharmacokinetics of C118P, a Novel Prodrug of Microtubules Inhibitor and Its Metabolite C118 in Mice, Rats, and Dogs” (Molecules, 2018).

Data set [1] can be described thus: Tissue distribution in rats. Type of data set: in vivo. Particulars: for concentration at 10 min: both sexes, Sprague-Dawley (SD), rat, iv, 10 min after i.v. 20 mg/kg of C118P. The method, then:
Eighteen rats (weight 220–260 g) with half males and half females were randomly assigned to there groups to carry out a tissue distribution study and fasted overnight. Blood and tissue samples, including the brain, skin, muscle, fat, testicle/ovary, pancreas, spleen, kidney, stomach, small intestine, heart, liver, lung, thymus, and thighbone were collected at 10 min, 1, and 4 h after intravenous administration (20 mg/kg). Blood was centrifuged for plasma samples. Tissue samples were rinsed with water to remove the blood and blotted dry with filter paper. An accurately-weighed amount of the tissue sample (0.2 g) or the entire organ for which weight less than 0.2 g was individually homogenized with EDTA solution (40 mg/mL, 2.0 mL). The left thigh bone was crushed and then soaked overnight in methanol-EDTA solution (1:1, v/v). A volume of 50 μL of homogenate or soak solution was prepared by protein precipitation and determined by the method described above. Tissue weights were used for calculating the concentrations (ng/g) of C118P and C118 in tissues.

The nature of data set [2]: Metabolic stability in liver microsomes. Type of data set: in vitro ADME, mice. How it is done:
(§1) The in vitro metabolic stability of C118P and C118 were estimated in mice, rat, dog, monkey, and human liver microsomes (Research Institute for Liver Diseases Co. Ltd (Shanghai, China)). The incubation mixture contains C118P or C118, NADP (1.0 mM), G-6-P (10 mM), PDH (2 units/mL), MgCl2 (10 mM), and liver microsomes (mice, rats, dogs, monkeys, or humans, 1.0 mg protein/mL) in phosphate buffer. A total of 200 μL of the mixture was removed and quenched with 600 μL acetonitrile in an ice bath at 0, 15, 30, 60, 120, and 240 min after the addition of NADPH.
(§2) CLint, in vitro (the in vitro intrinsic clearance, Equation (1)) was calculated from the t1/2 of C118 disappearance, where Cprotein is the protein concentration during the incubation, and t1/2 was determined by the slope (k) of the log-linear regression analysis of the concentration versus time profiles; thus, t1/2 = ln2/k. […] The in vivo hepatic clearance (CLH, Equation (3)) was then calculated by using CLint and hepatic blood flow, Q ([…] mL·min^−1·kg^−1 in rats, dogs, monkey, and humans, respectively), in the well-stirred liver model disregarding all binding. The hepatic extraction ratio was calculated as CLH divided by Q. CLint, in vitro = (0.693/t1/2) × (1/Cprotein)(1) CLint = CLint, in vitro × (mg protein/g liver weight) × (gliver weight/kg body weight)(2) CLH = (Q × CLint)/(Q + CLint)(3)
On the technique in general: Liver microsomes are vesicles of endoplasmic reticulum, rich in cytochrome P450 enzymes.

Data set [3] is described as follows: Metabolic stability in liver microsomes. Format: in vitro ADME, dog. The method, then:
as §1, §2

Data set [4] can be described thus: Excretion in rats (bile, urine, feces). Format: in vivo. As to conditions: i.v. C118P 20 mg/kg. The method, then:
Twelve rats (weight 220–260 g) with half males and half females were anesthetized with diethyl ether after fasted overnight. A median laparotomy was performed and the bile duct was cannulated with a catheter. After intravenous administration (20 mg/kg) of C118P solution, bile samples were collected at 1, 2, 4, 6, 10 and 24 h in EDTA-coated tubes. The accurate volume of bile samples were measured by weight loss method. A volume of 50 μL of bile was prepared by protein precipitation and determined by the method described above. The total cumulative molar excretion percentage of C118P and C118 in bile of ten rats was calculated according to the total molar amount of C118P and C118 and the dose.
Six rats (weight 200–230 g) with half males and half females were fasted overnight. After intravenous administration (20 mg/kg), urine and feces samples were collected at 12, 24, 36, 48, 60 and 72 h. The feces were collected in 200 mL of EDTA solution (100 mg/mL) and grinded into a suspension. The accurately volume amount of urine and feces samples were measured by weight loss method. A volume of 50 μL of urine or feces suspension was prepared by protein precipitation and determined by the method described above. The cumulative molar excretion percentage of C118P and C118 in urine or feces was calculated according to the concentrations of C118P and C118, the volume of each time period.

Data set [5] in a line: PK in rats after i.v. C118P. As to conditions: plasma; for AUC(0-inf) / half-life / clearance / concentration at 30 s: both sexes, rat; for AUC(0-inf) / half-life / clearance: iv; for concentration at 30 s: read-out: C2min (C30s for Rat). Type of data set: in vivo, SD rats. How it is done: The SD rats were supplied by the medical animal experiment center of Chinese People’s Liberation Army Nanjing military region. Twenty-four rats (210–300 g) with half males and half females were divided randomly into four groups. C118P was dissolved in saline to achieve different concentrations for intravenous administration. After fasting overnight, the rats were administered with a single intravenous dose of 5, 10, 20, or 50 mg/kg C118P. Blood samples (approximately 200 μL) were collected in EDTA-coated tubes pre-dose (0), and 30s, 2, 5, 10, 20, 40 min, 1, 2, 4, 8, 12 and 24 h post dose. Plasma was prepared by centrifugation at 8000 rpm for 5 min, and the plasma samples were then prepared and determined by the method described above.
The area under the plasma-concentration-versus-time curve from 0 to infinite (AUC0-inf), the elimination half-life (t1/2), the systemic plasma clearance (CL) and the volume of distribution (V) were calculated by non-compartmental analysis with WinNonlin software v6.3 (Pharsight Corporation, St. Louis, MO 63144, USA) from the plasma concentration data of C118P and C118, respectively. The instantaneous concentrations after intravenous to rats (C30s) or dogs (C2min) were obtained directly from the observed data.

[6] abbreviates: SD, in vivo, rats, i.v. C118P 5 mg/kg, n = 6.
The mark [7] stands for this setting: SD, in vivo, rats, i.v. C118P 20 mg/kg, n = 6.
[8] abbreviates: SD, in vivo, rats, i.v. C118P 50 mg/kg, n = 6.
The mark [9] stands for this setting: Sprague-Dawley, in vivo, rats, i.v. C118P 10 mg/kg, n = 6.
The mark [10] stands for this setting: SD, rats, i.v. C118P 5 mg/kg, n = 6.
Where [11] appears, read: SD, rats, i.v. C118P 20 mg/kg, n = 6.
[12] abbreviates: SD, rats, i.v. C118P 50 mg/kg, n = 6.
The mark [13] stands for this setting: Sprague-Dawley, rats, i.v. C118P 10 mg/kg, n = 6.

Each structure is given as a SMILES string. Read-outs that look alike come from different tables or passages of the source.

Regarding `COc1cc(OC)cc(-c2nc[nH]c2-c2ccc(OC)c(OP(=O)([O-])[O-])c2)c1.[Na+].[Na+]` [C118P], the tissue concentration result in data set [1] (10 min, 1 h and 4 h after i.v. 20 mg/kg of C118P, LLOQ 50 ng/g for tissues) is given as “below or slightly higher than the LLOQ”. Further, the “stability in liver microsomes” value in data set [2] (mice liver microsomes (Figure S1)) is listed as “quite stable”; in data set [3] (dog microsomes (Figure S1)), “not stable”. Moreover, the “sulfuric acid conjugation in urine” value in data set [4] is given as “no sulfuric acid conjugation was found”. Besides, the area under the curve AUC(0-inf) (as a rule, total exposure, with the tail of the curve extrapolated) is 5740 ± 766 ng·h/mL in data set [5] (setting [6]), 18700 ng·h/mL in data set [5] (setting [7]), 38900 ng·h/mL in data set [5] (setting [8]) and 10400 ng·h/mL in data set [5] (setting [9]). The half-life (in general, the time in which the quantity being followed falls by half) was 14.4 ± 3 min in data set [5] (setting [6]), 22.8 ± 6 min in data set [5] (setting [7]), 48 ± 34.2 min in data set [5] (setting [8]) and 12.6 ± 3 min in data set [5] (setting [9]). Further, the clearance in data set [5] (SD, in vivo, rats, i.v. C118P 5 mg/kg, n = 6, read-out: CL (converted)) was 14.7 mL/min/kg; in data set [5] (SD, in vivo, rats, i.v. C118P 10 mg/kg, n = 6, read-out: CL (converted)), 16.4 mL/min/kg; in data set [5] (SD, in vivo, rats, i.v. C118P 20 mg/kg, n = 6, read-out: CL (converted)), 18.5 mL/min/kg; in data set [5] (SD, in vivo, rats, i.v. C118P 50 mg/kg, n = 6, read-out: CL (converted)), 22.3 mL/min/kg. In addition, the concentration at 30 s in data set [5] (setting [6]) worked out at 75600 ng/mL; in data set [5] (setting [7]), 219000 ng/mL; in data set [5] (setting [8]) it was 373000 ng/mL; in data set [5] (setting [9]), 134000 ng/mL. The V in data set [5] (rats, i.v. C118P 5 mg/kg, n = 6) is 0.3025 ± 0.0611 L/kg; in data set [5] (rats, i.v. C118P 10 mg/kg, n = 6), 0.2994 ± 0.0676 L/kg; in data set [5] (rats, i.v. C118P 20 mg/kg, n = 6), 0.5826 ± 0.1142 L/kg; in data set [5] (rats, i.v. C118P 50 mg/kg, n = 6), 1.5022 ± 1.0658 L/kg.
As to `COc1cc(OC)cc(-c2nc[nH]c2-c2ccc(OC)c(O)c2)c1` [C118], the “tissue concentration in most tissues” value in data set [1] (4 h after i.v. 20 mg/kg of C118P, LLOQ 50 ng/g for tissues) is on record as “below or slightly higher than LLOQ”. The concentration at 10 min worked out at 6340 ± 4130 ng/g in data set [1] (heart, read-out: tissue concentration in heart); 7640 ± 3410 ng/g in data set [1] (kidney, read-out: tissue concentration in kidney); 12900 ng/g in data set [1] (lung, read-out: tissue concentration in lung). The “CLint, in vitro” value in data set [2] (mice liver microsomes) is listed as 44.7 μL·min^−1·mg^−1 Protein; in data set [3] (dog liver microsomes), 9.9 μL·min^−1·mg^−1 Protein. Besides, the CLint in data set [2] (mice, scaled from CLint, in vitro) was determined as 115.3 mL/min/kg; in data set [3] (dog, scaled from CLint, in vitro), 18.9 mL/min/kg. Besides, the half-life in data set [2] (mouse, mice liver microsomes, 1.0 mg protein/mL, C118 disappearance) was 15.5 min; in data set [3] (dog liver microsomes, 1.0 mg protein/mL, C118 disappearance), 70.1 min; in data set [5] (setting [10]), 31.2 ± 6 min; in data set [5] (setting [11]), 36 ± 3.6 min; in data set [5] (setting [12]) it was 149 ± 75.6 min; in data set [5] (setting [13]), 33 ± 7.8 min. In addition, the “Extrapolated CLH” value in data set [3] (dog, well-stirred liver model) is 12.8 mL/min/kg. Further, the concentration at 30 s turned out to be 1580 ± 318 ng/mL in data set [5] (SD, intravenous, rats, i.v. C118P 5 mg/kg, n = 6); 7720 ± 2010 ng/mL in data set [5] (SD, intravenous, rats, i.v. C118P 20 mg/kg, n = 6); 20600 ng/mL in data set [5] (SD, intravenous, rats, i.v. C118P 50 mg/kg, n = 6); 3720 ± 974 ng/mL in data set [5] (Sprague-Dawley, intravenous, rats, i.v. C118P 10 mg/kg, n = 6). Further, the AUC(0-inf) was 741 ± 63.2 ng·h/mL in data set [5] (setting [10]), 3750 ± 592 ng·h/mL in data set [5] (setting [11]), 9720 ± 1300 ng·h/mL in data set [5] (setting [12]) and 1600 ± 193 ng·h/mL in data set [5] (setting [13]). The clearance in data set [5] (Sprague-Dawley, in vivo, compared with extrapolated CLH, read-out: Observed CL) is 62.9 mL/min/kg.
